≈ marks a conversion by molar mass, not a printed value. Like-named read-outs stand apart in the source and are kept apart here.
Tests used:
[1] = tested on: AsPC-1 cells; experiment: AsPC-1 CTG proliferation assay (120 h) (pancreatic cancer, G12D); assay type: cell-based; conditions: Homo sapiens, ASPC1
Procedure, shortened: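 CellTiter-Glo luminescence, normalised to DMSO wells, measured viability after 120 h compound exposure. Cells were AsPC-1 pancreatic cancer (G12D) plated at 2000 per well in RPMI/10% FCS the day before dosing. IC50 derived by four-parameter regression.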

[2] = tested on: NCI-H2122 cells; experiment: NCI-H2122 CTG proliferation assay (120 h) (NSCLC, G12C); assay type: cell-based; conditions: Homo sapiens
Procedure, shortened: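 Proliferation was read by CellTiter-Glo luminescence after 120 h of compound exposure, starting one day after seeding 200 NCI-H2122 (G12C) cells per well in RPMI/10% FCS. RLU relative to DMSO wells gave percent viability, and four-parameter nonlinear regression gave IC50.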

[3] = tested on: SAS cells; experiment: SAS CTG proliferation assay (120 h) (HNSCC, wt amplified); assay type: cell-based
Procedure, shortened: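 Viability measured by CellTiter-Glo luminescence, normalized to DMSO wells, after 120 h compound treatment of SAS cells. Cells grown in DMEM:F12 plus 10% FCS at 300 cells per well, dosed the day after seeding. Four-parameter fit gives IC50.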

[4] = Plasma protein binding assay (PPB), equilibrium dialysis, 10% FCS in PBS; assay type: in vitro ADME; conditions: bovine, read-out: PPB 10% FCS (% fu)
Procedure, shortened: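 Test compound (1-10 μmol/L) in 10% FCS in PBS was dialysed for 3-5 h at 37° C versus PBS ± dextran across a semipermeable membrane. LC-MS of both compartments after protein precipitation gave Cserum and Cbuffer, from which the unbound fraction fu was derived.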

[5] = Solubility measurement (DMSO solution method), McIlvaine buffer pH 4.5 or 6.8; assay type: physicochemical; conditions: aqueous buffer, kinetic from dmso stock, DMSO stock diluted to 250 μM, 24 h shaking at ambient temperature
Procedure, shortened: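 Filtrate concentration by LC-UV, calibrated to a known-concentration reference dissolved completely in acetonitrile/water (1:1). Samples came from 250 µM final dilutions of DMSO stock in pH 4.5 or 6.8 McIlvaine buffer, shaken 24 h at ambient temperature, then filtered.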

[6] = tested on: SK-CO-1 cells; experiment: SK-CO-1 CTG proliferation assay (120 h) (CRC, G12V); assay type: cell-based; conditions: Homo sapiens; SK-CO-1 cells (CRC, G12V), CTG 120 h
Procedure, shortened: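 Compound exposure lasted 120 h in KRAS G12V SK-CO-1 cells seeded overnight at 500 cells/well in 10% FCS EMEM. CellTiter-Glo RLU normalised to DMSO wells gave percent viability, and a four-parameter model fit yielded IC50.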

[7] = McIlvaine buffer pH 4.5, read-out: solubility pH 4.5
[8] = McIlvaine buffer pH 6.8, read-out: solubility pH 6.8

SMILES	IC50 [1] [nM]	IC50 [2] [nM]	IC50 [3] [nM]	fraction unbound [4]	solubility at 24 h [5, 7] [µg/mL]	solubility at 24 h [5, 8] [µg/mL]	IC50 [6] [nM]
C[C@H](Oc1cc(N2CC[C@H](N3CCCC3)C2)nc(-c2noc3c2CCC[C@@]32CCCc3sc(N)c(C#N)c32)n1)[C@@H]1CCCN1C [II-14]	245	1390	1670	0.16	> 151	123 (≈ 196 µM)	771
C[C@H](Oc1cc(N2CC[C@H](N(C)C)C2)nc(-c2noc3c2CCC[C@@]32CCCc3sc(N)c(C#N)c32)n1)[C@@H]1C[C@@H](F)CN1C [II-15]	220	2420	1300	0.64	> 144	> 130	1250
C[C@H]1CN(C)CCCN1c1cc(N2CC[C@H](N(C)C)C2)nc(-c2noc3c2CCC[C@@]32CCCc3sc(N)c(C#N)c32)n1 [II-16]	1920	3530	3870	0.16	> 147	> 132	1870
C[C@H](Oc1cc(-n2ccc(C(=O)N3CCCC3)n2)nc(-c2noc3c2CCC[C@@]32CCCc3sc(N)c(C#N)c32)n1)[C@@H]1CCCN1C [II-19]	870	19	132	0.04	89 (≈ 136 µM)	< 1	11
CNC(=O)c1ccn(-c2cc(O[C@@H](C)[C@@H]3CCCN3C)nc(-c3noc4c3CCC[C@@]43CCCc4sc(N)c(C#N)c43)n2)n1 [II-20]	1030	2040	86	0.14	83 (≈ 135 µM)	33 (≈ 53.8 µM)	9
C[C@H](Oc1cc(-n2ccc(C(N)=O)n2)nc(-c2noc3c2CCC[C@@]32CCCc3sc(N)c(C#N)c32)n1)[C@@H]1CCCN1C [II-21]	694	128	35	0.24	80 (≈ 133 µM)	34 (≈ 56.7 µM)	6
CCOC(=O)c1ccn(-c2cc(O[C@@H](C)[C@@H]3CCCN3C)nc(-c3noc4c3CCC[C@@]43CCCc4sc(N)c(C#N)c43)n2)n1 [II-23]	1640	2950	222	0.03	75 (≈ 119 µM)	< 1	31
C[C@H](Oc1cc(-n2ccc(C(=O)O)n2)nc(-c2noc3c2CCC[C@@]32CCCc3sc(N)c(C#N)c32)n1)[C@@H]1CCCN1C [II-24]	> 25000	5330	15600	0.48	< 1	< 1	9250
C[C@H](Oc1cc(-n2ccc(C(=O)NC3COC3)n2)nc(-c2noc3c2CCC[C@@]32CCCc3sc(N)c(C#N)c32)n1)[C@@H]1CCCN1C [II-25]	891	33	9	0.15	124 (≈ 189 µM)	73 (≈ 111 µM)	3
C[C@H](Oc1cc(-n2ccc(C(=O)NC3(C)COC3)n2)nc(-c2noc3c2CCC[C@@]32CCCc3sc(N)c(C#N)c32)n1)[C@@H]1CCCN1C [II-26]	1380	143	5	0.24	> 194	62 (≈ 92.6 µM)	3
C[C@H](Oc1cc(-c2ccn(C)n2)nc(-c2noc3c2CCC[C@@]32CCCc3sc(N)c(C#N)c32)n1)[C@@H]1C[C@@H](F)CN1C [II-27]	4100	898	151	0.05	108 (≈ 183 µM)	< 1	115
C[C@H](Oc1cc(-c2cnn(C)n2)nc(-c2noc3c2CCC[C@@]32CCCc3sc(N)c(C#N)c32)n1)[C@@H]1C[C@@H](F)CN1C [II-28]	5070	9480	203	0.09	> 133	< 1	433
C[C@H]1CN(C)CCCN1c1cc(N2CCN(C)CC2)nc(-c2noc3c2CCC[C@@]32CCCc3sc(N)c(C#N)c32)n1 [II-30]	2380	3550	10600	0.64	> 136	> 125	9070
C[C@H](Oc1cc(N2CCNC3(COC3)C2)nc(-c2noc3c2CCC[C@@]32CCCc3sc(N)c(C#N)c32)n1)[C@@H]1CCCN1C [II-31]	42	2550	208	0.63	> 151	> 133	365
C[C@H](Oc1cc(N2CCNC(C)(C)C2)nc(-c2noc3c2CCC[C@@]32CCCc3sc(N)c(C#N)c32)n1)[C@@H]1CCCN1C [II-32]	385	3300	8310	0.31	> 121	117 (≈ 194 µM)	704
C[C@H](Oc1cc(N2CC3CCC(C2)N3)nc(-c2noc3c2CCC[C@@]32CCCc3sc(N)c(C#N)c32)n1)[C@@H]1CCCN1C [II-34]	1420	9010	1950	0.37	> 146	114 (≈ 190 µM)	1240
C[C@@H]1CN(c2cc(O[C@@H](C)[C@@H]3CCCN3C)nc(-c3noc4c3CCC[C@@]43CCCc4sc(N)c(C#N)c43)n2)C[C@H](C)N1 [II-36]	990	3480	179	0.57	> 146	> 140	1120
C[C@H](Oc1cc([C@@H]2CCN(C)C2)nc(-c2noc3c2CCC[C@@]32CCCc3sc(N)c(C#N)c32)n1)[C@@H]1CCCN1C [II-37]	1450	5500	1250	0.71	> 152	> 152	562
C[C@H](Oc1cc(N2CCNC3(CCC3)C2)nc(-c2noc3c2CCC[C@@]32CCCc3sc(N)c(C#N)c32)n1)[C@@H]1CCCN1C [II-40]	261	1420	979	0.53	> 140	> 133	488
C[C@H](Oc1cc(N2CCNC3(CCCC3)C2)nc(-c2noc3c2CCC[C@@]32CCCc3sc(N)c(C#N)c32)n1)[C@@H]1CCCN1C [II-41]	269	1650	2110	0.1	> 138	> 130	910
C[C@H](Oc1cc(-c2ccn([C@H]3CCCOC3)n2)nc(-c2noc3c2CCC[C@@]32CCCc3sc(N)c(C#N)c32)n1)[C@@H]1CCCN1C [II-42]	1890	357	264	0.1	119 (≈ 186 µM)	9 (≈ 14 µM)	38
C[C@H](Oc1cc(-c2ccn(C[C@@H]3CCCO3)n2)nc(-c2noc3c2CCC[C@@]32CCCc3sc(N)c(C#N)c32)n1)[C@@H]1CCCN1C [II-43]	2050	102	24	0.11	121 (≈ 189 µM)	9 (≈ 14 µM)	46
C[C@H](Oc1cc(C2CCCO2)nc(-c2noc3c2CCC[C@@]32CCCc3sc(N)c(C#N)c32)n1)[C@@H]1CCCN1C (stereo partly shown) [II-44]	2160	1580	6000	0.39	> 115	104 (≈ 185 µM)	193
C[C@H](Oc1cc(N2CCNCC2)nc(-c2noc3c2CCC[C@@]32CCCc3sc(N)c(C#N)c32)n1)[C@@H]1CCCN1C [II-45]	2310	10600	530	0.61	> 135	> 118	1790
C[C@H](Oc1cc(N2CC[C@@H](N(C)C)C2)nc(-c2noc3c2CCC[C@@]32CCCc3sc(N)c(C#N)c32)n1)[C@@H]1CCCN1C [II-47]	991	2020	2620	0.34	> 162	> 145	600

From patent US20240174690A1, “ANNULATED 2-AMINO-3-CYANO THIOPHENES AND DERIVATIVES FOR THE TREATMENT OF CANCER” (BOEHRINGER INGELHEIM INTERNATIONAL GMBH, priority 2021, published 2024)
